From patent publication US9796709B2, “5-hydroxy-4-(trifluoromethyl)pyrazolopyridine derivative” (Daiichi Sankyo Company, Limited, priority 2013, dated 2017)

Experiments:
[1] = test system: cynomolgus monkey; test: Drug efficacy test in cynomolgus monkeys (plasma HDL cholesterol); assay type: in vivo; conditions: Macaca fascicularis, oral, single dose of 10 mg/kg, from AUC before administration and 24 hours after administration, read-out: Rate of increase in HDL level after administration of single dose
Description: Each test drug was dissolved in a propylene glycol (Sigma-Aldrich Corp.)-Tween 80 (Sigma-Aldrich Corp.) mixed solution [4/1 (v/v)] or a 0.5% (w/v) methylcellulose aqueous solution, and the solution was orally administered to a cynomolgus monkey for 1 or 7 days. At day 1 or 7 of the administration period, blood was collected before administration and after administration, and plasma was obtained. The content of cholesterol in the plasma was measured using a commercially available assay kit (Cholesterol-E Wako, Wako Pure Chemical Industries, Ltd.). The lipoprotein profile was analyzed by HPLC (column: LipopropakXL, manufactured by Tosoh Corp.). The contents of HDL cholesterol and non-HDL cholesterol were calculated according to the following calculation expression: Content of HDL cholesterol=Content of cholesterol in the plasma×(Peak area of HDL cholesterol/Total sum of peaks) Content of non-HDL cholesterol=Content of cholesterol in the plasma×(Peak area of non-HDL cholesterol/Total sum of peaks)

[2] = target: T1, LCAT (Homo sapiens, UniProt P04180); test: LCAT activity measurement (in vitro), [14C]cholesterol esterification with HDL3 fraction; assay type: biochemical; conditions: HDL3 fraction from plasma of a healthy person as enzyme source and acceptor; 37° C., approximately 16 hours; relative to sample without test drug; read-out: EC50 of LCAT activation
T1 construct: The obtained fraction was dialyzed against phosphate-buffered saline (pH 7.4) and used as an enzyme source and an acceptor for LCAT; from tissue; host or cells: HDL3 fraction (1.125 < specific gravity < 1.210 g/mL) of plasma from a healthy person
T1 sequence (P04180 25-440): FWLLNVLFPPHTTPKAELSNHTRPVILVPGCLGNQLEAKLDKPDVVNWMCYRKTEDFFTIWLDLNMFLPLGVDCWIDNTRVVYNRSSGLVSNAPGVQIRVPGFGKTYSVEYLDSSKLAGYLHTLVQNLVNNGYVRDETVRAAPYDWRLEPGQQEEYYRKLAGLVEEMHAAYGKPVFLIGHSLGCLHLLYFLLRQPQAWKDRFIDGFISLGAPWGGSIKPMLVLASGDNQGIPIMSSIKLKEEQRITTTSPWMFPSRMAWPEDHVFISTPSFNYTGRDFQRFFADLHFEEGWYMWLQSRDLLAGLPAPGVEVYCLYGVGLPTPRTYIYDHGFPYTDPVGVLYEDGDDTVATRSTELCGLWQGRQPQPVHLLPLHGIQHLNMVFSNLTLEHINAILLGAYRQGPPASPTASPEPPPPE
Description: A fraction composed of HDL3 (1.125 <specific gravity <1.210 g/mL) was obtained from the plasma of a healthy person by density gradient centrifugation. The obtained fraction was dialyzed against phosphate-buffered saline (pH 7.4) and used as an enzyme source and an acceptor for LCAT. Each test drug was prepared by dissolution in dimethyl sulfoxide. [^14C]Cholesterol containing DTNB (Ellman's reagent, final concentration: 0.5 mM), mercaptoethanol (final concentration: 12.5 mM), and 0.6% bovine serum albumin was added to phosphate-buffered saline (pH 7.4) containing 1 mg/mL HDL3, and the test drug was further added thereto at varying concentrations to adjust the whole amount to 80 μL. This mixture was incubated at 37° C. for approximately 16 hours. Then, a mixed solution of hexane and isopropanol (mixing ratio=3:2) was added thereto to stop the reaction. After stirring, the hexane layer was collected, and this layer was evaporated to dryness. A chloroform solution (concentration: 10 mg/mL) was added thereto, and the mixture was spotted onto a thin-layer silica gel plate and developed using a mixed solution of hexane, diethyl ether, and ethyl acetate (mixing ratio=85:15:2). The radioactivity of a portion corresponding to cholesterol oleate was measured using an imaging analyzer BAS-2500 (manufactured by Fujifilm Corp.). A sample non-supplemented with the test drug was similarly treated and assayed. The EC50 value of LCAT activation was calculated according to the expression given below relative to LCAT activity in the sample non-supplemented with the test drug.
[formula] • wherein X represents the logarithm of the concentration of the test drug; • Y represents the responsiveness (LCAT activity) of the test drug; • Top represents the maximum value (maximum plateau); • Bottom represents the minimum value (minimum plateau); and • EC50 represents the 50% effective concentration.

Compound | change in vivo at 10 mg/kg [1] [%] | EC50 [2] [nM]
O=C1Nc2[nH]nc(C3CCN(c4ccc(C(F)(F)F)cn4)CC3)c2[C@@H](C(F)(F)F)[C@H]1O (single isomer, unassigned) [Example 3, (+)-cis-5-Hydroxy-4-(trifluoromethyl)-3-{1-[5-(trifluoromethyl)pyridin-2-yl]piperidin-4-yl}-1,4,5,7-tetrahydro-6H-pyrazolo[3,4-b]pyridin-6-one] | 658 | 13
O=C1Nc2[nH]nc(C3CCN(c4cnc(C(F)(F)F)cn4)CC3)c2[C@@H](C(F)(F)F)[C@H]1O (single isomer, unassigned) [Example 18, (+)-cis-5-Hydroxy-4-(trifluoromethyl)-3-{1-[5-(trifluoromethyl)pyrazin-2-yl]piperidin-4-yl}-1,4,5,7-tetrahydro-6H-pyrazolo[3,4-b]pyridin-6-one] | 644 | 9
N#Cc1cnc(N2CCC(c3n[nH]c4c3[C@@H](C(F)(F)F)[C@@H](O)C(=O)N4)CC2)cc1C(F)(F)F (single isomer, unassigned) [Example 20, (+)-6-{4-[cis-5-Hydroxy-6-oxo-4-(trifluoromethyl)-4,5,6,7-tetrahydro-1H-pyrazolo[3,4-b]pyridin-3-yl]piperidin-1-yl}-4-(trifluoromethyl)pyridine-3-carbonitrile] | 454 | 51
O=C1Nc2[nH]nc(C3CCN(c4cnc(C(F)(F)F)nc4)CC3)c2[C@@H](C(F)(F)F)[C@H]1O (single isomer, unassigned) [Example 21, (+)-cis-5-Hydroxy-4-(trifluoromethyl)-3-{1-[2-(trifluoromethyl)pyrimidin-5-yl]piperidin-4-yl}-1,4,5,7-tetrahydro-6H-pyrazolo[3,4-b]pyridin-6-one] | 483 | 18
N#Cc1ncc(N2CCC(c3n[nH]c4c3[C@@H](C(F)(F)F)[C@@H](O)C(=O)N4)CC2)cc1F (single isomer, unassigned) [Example 24, (+)-3-Fluoro-5-{4-[cis-5-hydroxy-6-oxo-4-(trifluoromethyl)-4,5,6,7-tetrahydro-1H-pyrazolo[3,4-b]pyridin-3-yl]piperidin-1-yl}pyridine-2-carbonitrile] | – | 30
O=C1Nc2[nH]nc(C3CCN(c4ccnc(C(F)(F)F)n4)CC3)c2[C@@H](C(F)(F)F)[C@H]1O (single isomer, unassigned) [Example 25, (+)-cis-5-Hydroxy-4-(trifluoromethyl)-3-{1-[2-(trifluoromethyl)pyrimidin-4-yl]piperidin-4-yl}-1,4,5,7-tetrahydro-6H-pyrazolo[3,4-b]pyridin-6-one] | – | 100
O=C1Nc2[nH]nc(C3CCN(c4nnc(C(F)(F)F)s4)CC3)c2[C@@H](C(F)(F)F)[C@H]1O (single isomer, unassigned) [Example 26, (+)-cis-5-Hydroxy-4-(trifluoromethyl)-3-{1-[5-(trifluoromethyl)-1,3,4-thiadiazol-2-yl]piperidin-4-yl}-1,4,5,7-tetrahydro-6H-pyrazolo[3,4-b]pyridin-6-one] | – | 65
Cc1cc(N2CCC(c3n[nH]c4c3[C@@H](C(F)(F)F)[C@@H](O)C(=O)N4)CC2)cnc1C#N (single isomer, unassigned) [Example 27, (+)-5-{4-[cis-5-Hydroxy-6-oxo-4-(trifluoromethyl)-4,5,6,7-tetrahydro-1H-pyrazolo[3,4-b]pyridin-3-yl]piperidin-1-yl}-3-methylpyridine-2-carbonitrile] | – | 37
N#Cc1cnc(N2CCC(c3n[nH]c4c3[C@@H](C(F)(F)F)[C@@H](O)C(=O)N4)CC2)cn1 (single isomer, unassigned) [Example 28, (+)-5-{4-[cis-5-Hydroxy-6-oxo-4-(trifluoromethyl)-4,5,6,7-tetrahydro-1H-pyrazolo[3,4-b]pyridin-3-yl]piperidin-1-yl}pyrazine-2-carbonitrile] | – | 160
O=C1Nc2[nH]nc(C3CCN(c4ccc(-c5ccccc5)nn4)CC3)c2[C@@H](C(F)(F)F)[C@H]1O (single isomer, unassigned) [Example 29, cis-5-hydroxy-3-[1-(6-phenylpyridazin-3-yl)piperidin-4-yl]-4-(trifluoromethyl)-1,4,5,7-tetrahydro-6H-pyrazolo[3,4-b]pyridin-6-one] | – | 11
N#Cc1cncc(N2CCC(c3n[nH]c4c3[C@@H](C(F)(F)F)[C@@H](O)C(=O)N4)CC2)c1 (single isomer, unassigned) [Example 31, (+)-5-{4-[cis-5-Hydroxy-6-oxo-4-(trifluoromethyl)-4,5,6,7-tetrahydro-1H-pyrazolo[3,4-b]pyridin-3-yl]piperidin-1-yl}pyridine-3-carbonitrile] | – | 34
O=C(OCc1ccccc1)c1cc(N2CCC(c3n[nH]c4c3[C@@H](C(F)(F)F)[C@@H](O)C(=O)N4)CC2)ncc1C(F)(F)F (single isomer, unassigned) [Example 32, Benzyl (+)-2-{4-[cis-5-hydroxy-6-oxo-4-(trifluoromethyl)-4,5,6,7-tetrahydro-1H-pyrazolo[3,4-b]pyridin-3-yl]piperidin-1-yl}-5-(trifluoromethyl)pyridine-4-carboxylate] | – | 7
CC(C)Oc1ccc(N2CCC(c3n[nH]c4c3[C@@H](C(F)(F)F)[C@@H](O)C(=O)N4)CC2)nc1 (single isomer, unassigned) [Example 36, (+)-cis-5-Hydroxy-3-[1-(5-isopropoxypyridin-2-yl)piperidin-4-yl]-4-(trifluoromethyl)-1,4,5,7-tetrahydro-6H-pyrazolo[3,4-b]pyridin-6-one] | – | 41
O=C1Nc2[nH]nc(C3CCN(c4cncc(C(F)(F)F)c4)CC3)c2[C@@H](C(F)(F)F)[C@H]1O (single isomer, unassigned) [Example 38, (+)-cis-5-Hydroxy-4-(trifluoromethyl)-3-{1-[5-(trifluoromethyl)pyridin-3-yl]piperidin-4-yl}-1,4,5,7-tetrahydro-6H-pyrazolo[3,4-b]pyridin-6-one] | – | 24
CC(C)Oc1ccc(N2CCC(c3n[nH]c4c3[C@@H](C(F)(F)F)[C@@H](O)C(=O)N4)CC2)cn1 (single isomer, unassigned) [Example 39, cis-5-hydroxy-3-[1-(6-isopropoxypyridin-3-yl)piperidin-4-yl]-4-(trifluoromethyl)-1,4,5,7-tetrahydro-6H-pyrazolo[3,4-b]pyridin-6-one] | – | 92
O=C1Nc2[nH]nc(C3CCN(c4cnc(C5CC5)nc4)CC3)c2[C@@H](C(F)(F)F)[C@H]1O (single isomer, unassigned) [Example 40, cis-3-[1-(2-cyclopropylpyrimidin-5-yl)piperidin-4-yl]-5-hydroxy-4-(trifluoromethyl)-1,4,5,7-tetrahydro-6H-pyrazolo[3,4-b]pyridin-6-one] | – | 70
CC(C)Oc1ccc(N2CCC(c3n[nH]c4c3[C@@H](C(F)(F)F)[C@@H](O)C(=O)N4)CC2)nn1 (single isomer, unassigned) [Example 41, (+)-cis-5-Hydroxy-3-[1-(6-isopropoxypyridazin-3-yl)piperidin-4-yl]-4-(trifluoromethyl)-1,4,5,7-tetrahydro-6H-pyrazolo[3,4-b]pyridin-6-one] | – | 35
O=C1Nc2[nH]nc(C3CCN(c4ccc(C(F)(F)F)cn4)CC3)c2C(O)(C(F)(F)F)C1O (stereo not shown) [Example 4, 4,5-Dihydroxy-4-(trifluoromethyl)-3-{1-[5-(trifluoromethyl)pyridin-2-yl]piperidin-4-yl}-1,4,5,7-tetrahydro-6H-pyrazolo[3,4-b]pyridin-6-one] | – | 22
